One experiment relates to HT22 cells. In words: Glutamate insult test in HT22 cells, MTT assay. Type of experiment: cell-based, Mouse. To be noted: for reduced HT22 cell death: 400 nM peptide; for reduced HT22 cell death / reduced cell death: 6 mM glutamate, 24 h, MTT. On the procedure: The group with 0 nM RvTAT-PKD-S205 was as a control. Cell Death rate (%)=100%×(Control OD−treatment OD)/Control OD. Data were shown as mean t SEM, (n=3), *p<0.05, **p<0.01, One-Way ANOVA followed by Multiple Comparisons versus the group with 0 nM RvTAT-PKD-S205 (Bonferroni t-test).
After 24 hours following glutamate exposure, cell cytotoxicity was determined by the MTT assay. HT22 cells, without the presence of the test agents in culture medium, were exposed separately 42 of 59 to 6 mM Glutamate salt as a control. Cell Death (%)=100%×(Control OD−treatment OD)/Control OD. Data were shown as mean±SEM, (n=3) * p<0.05, **p<0.01, One-Way ANOVA followed by Multiple Comparisons versus Glutamate Control Group (Bonferroni t-test).
The cells of HT-22 Mouse Hippocampal neuronal cell line were cultured and maintained in DMEM 10% fetal bovine serum, 100 U/ml penicillin and 100 μg/ml streptomycin. Cells were maintained at a temperature of 37° C. in 5% CO2/95% air. During agent's treatments and experimentation, HT-22 cells were seeded in 96-well plates by 6×10^3 cells/well and cultured at 37° C. in a CO2 incubator for 24 h. Afterwards, For neuroprotection assays, HT22 cells were exposure to 6 mM glutamate by removing media and adding Neurobasal Medium with present of 2% B27 (B27 (B-27™ Plus Supplement (50×)) and various concentrations of test agents for further 24 hours at 37° C. in the CO2 incubator. Cell viability was assessed by MTT assay.
Cell viability was quantitatively measured by 3-[4,5-dimethylthiazol-2-yl]-2,5-diphenyltetrazolium bromide (MTT) assay.
Water-soluble yellow dye MTT reagent (final concentration 0.5 mg/ml) was added to each well and incubated at 37° C. After 4 hours, the incubate medium was removed and 100 μl of Dimethyl Sulfoxide (DMSO) was added. After 30 min extraction at room temperature, the absorbance of the formazan solution is determined spectrophotometrically at 570 nm. MTT absorbance data were converted to reflect proportional cell viability relative to both the untreated and treated controls, wherein the untreated control was considered as 100% viability.
On the technique in general: Formazan colour is commonly taken as a measure of viable cells.

Experiment [1] relates to rat primary cortical neurons. In words: Oxygen-glucose deprivation (OGD)/reperfusion in primary cortical neuronal cultures, MTT assay. It is filed as cell-based, Sprague Dawley rat. The protocol:
(§1) To induce OGD, EBSS containing 20 mM pH7.2 Sodium dithionite (Na2S2O4) solution with test agents were transiently exposed for 1.5 hrs, afterwards, for reperfusion, OGD culture medium was replaced with normal neurobasal media. The culture cells were further incubated for 20 hours, and cell cytotoxicity was assessed using the MTT assay. Non-OGD treated cell culture was as a control taken as 100% viability, Cell Death rate (%)=100%×(Control OD−treatment OD)/Control OD. Data were shown as mean±SEM, (n=3) * p<0.05, One-Way ANOVA followed by Multiple Comparisons versus OGD CTRL Group (Bonferroni t-test).
as §1, with “peptides” for “agents”, “show” for “shown”, “(n=3)) ** p<0.01, *** p<0.005;” for “(n=3) * p<0.05,”
Primary cultures of mixed cortical cell cultures containing both neurons and glia were prepared from embryonic day 15-18 Sprague Dawley rat as described previously [Wenxiang Fan, 50 of 59 Xiang Li, Liangliang Huang, Shucheng He, Zhicheng Xie, Yuxin Fu, Weirong Fang, Yunman Li S-oxiracetam ameliorates ischemic stroke induced neuronal apoptosis through up-regulating α7nAChR and PI3K/Akt/GSK3β signal pathway in rats Neurochemistry International Volume 115, May 2018, Pages 50-60 https://doi.org/10.1016/j.Neuint.2018.01.008]. […]
Oxygen glucose deprivation were performed according to a previously method [J. Huang, N. D. Kodithuwakku, W. He. […] Finally, Cell viability was determined by MTT assay (same as 1.2) […]

The test system of experiment [2] is transient bilateral common carotid artery occlusion (tBCCAO/R) global cerebral ischemia model. In words: Y-maze passive avoidance after tBCCAO/R. It is filed as in vivo, C57BL/6 mice. To be noted: 7 mg/kg i.v. 3 h after tBCCAO; tested 24 h after tBCCAO/R; vs untreated group. The protocol:
(§2) C57BL/6 mice were subjected to two times 20 minutes bilateral common carotid arteries occlusion followed by reperfusion (tBCCAO/R) and treated with 7 mg/2 ml/kg RvTAT-PKD-S205 or some volume Saline via tail vein administered after 3 hours of the tBCCAO. After 24 hours of reperfusion, the ischemic mice were estimated by the Y maze Passive Avoidance task, as well as the MDA content in hippocampus and brain water content. […] FIG. 6C show the MDA content in hippocampus collected from Ischemic or sham mice after 24 hours of reperfusion subject to MDA ELISA assay. […] Data were shown as mean±SEM, (n=11 in each group), *p<0.05, **p<0.01 compared to Saline control group using Student t test. Animal treatments were randomized, and all procedures were performed blinded to treatment. […]
The day before surgery, the researchers train the mice to avoid electric shocks caused by light sources, which can minimize the effects of odor. […] Learning and memory skill was quantified by Y maze passive avoidance task 24 hours after tBCCAO/R modeling (FIG. 6A).
After 24 hrs BCCAO/R mice were acclimatized to the testing room before conducting the Y-maze and allowed to familiarize themselves with the maze. […] A current stimulation of pre-determined intensity (0.05-0.8 mA) will be administered. […] The number to escape to the safe zone was recorded; any escapes to non-safe zones were regarded as erroneous. […]

The subject of experiment [3] is transient middle cerebral artery occlusion/reperfusion (MCAO/R) stroke model. Description: Rotarod motor performance after MCAO/R. To be noted: 3.5 mg/kg i.v. 4.5 h after ischemia onset; for Holding time on rod increase: vs untreated control group. It is filed as in vivo, Sprague-Dawley rats. (Falling from the rotarod earlier than controls is read as motor impairment.)

The test system of experiment [4] is MDA content in hippocampus. Description: Malondialdehyde (MDA) assay after tBCCAO/R. Type of experiment: in vivo, C57BL/6 mice. As to conditions: 7 mg/kg i.v. 3 h after tBCCAO; 24 h reperfusion; vs saline. On the procedure: as §2
MDA is one of the important products of lipid peroxidation and the extent of lipid oxidation was determined by measuring MDA levels. […] The supernatants were collected after the lysates were centrifuged at 3,500 r/min for 10 min at 4° C., and MDA content was determined using MDA TCA kit (Nanjing Jiancheng Bioengineering Institute, Nanjing, China) following the manufacturer's protocol. The results were evaluated from the standard curve and calculated as nM/mg of tissue.

For experiment [5], the system named is transient bilateral common carotid artery occlusion (tBCCAO/R) global cerebral ischemia model. In words: Brain edema (brain water content) after tBCCAO/R. It is filed as in vivo, C57BL/6 mice. To be noted: 7 mg/kg i.v. 3 h after tBCCAO; 24 h reperfusion; vs saline controls. The protocol: C57BL/6 mice were subjected to two times 20 minutes bilateral common carotid arteries occlusion followed by reperfusion (tBCCAO/R) and treated with 7 mg/2 ml/kg RvTAT-PKD-S205 or some volume Saline via tail vein administered after 3 hours of the tBCCAO. After 24 hours of reperfusion, the ischemic mice were estimated by the Y maze Passive Avoidance task, as well as the MDA content in hippocampus and brain water content. […] FIG. 6C show the MDA content in hippocampus collected from Ischemic or sham mice after 24 hours of reperfusion subject to MDA ELISA assay. […] Data were shown as mean±SEM, (n=11 in each group), *p<0.05, **p<0.01 compared to Saline control group using Student t test. Animal treatments were randomized, and all procedures were performed blinded to treatment.
Modeling: C57 […] male mice weighing 20-30 g (6-7 weeks old) were allowed free access to food and water and were housed under constant environmental conditions (a 12/12 h light/dark cycle). […]
Mice were assessed for brain edema by the dry/wet weight measurement after 24 hrs BCCAO/R. Wet weight was determined immediately after dissection of the brain, then the tissue was dried at 55° C. to a constant weight over 24 hours to determine the dry weight. The percentage of brain water content was calculated as (wet weight−dry weight)/wet weight*100.

Experiment [6] has as its system transient middle cerebral artery occlusion/reperfusion (MCAO/R) stroke model. In words: Transient MCAO/R stroke model, infarct volume by TTC staining. It is filed as in vivo, Sprague-Dawley rats. To be noted: 3.5 mg/kg single i.v. bolus 4.5 h after ischemia onset; 90 min MCAO; TTC about 24 h; vs saline controls.

Consider “RRRQRRKKRGKKRPQRRYSNVP [RvTAT-opMLC-S20]”, for which the “reduced HT22 cell death” value in the experiment on HT22 cells is reported as ~25%. For the same sequence, the survival of neurons result in experiment [1] (OGD model) is “did not significantly increase”.
As for “RRRQRRKKRGNLSRRLKVTGDL [RvTAT-BECN1-T199, Fusion peptide: RvTAT at N-terminus of BECN1-T199]”, in the experiment with HT22 cells, the “reduced HT22 cell death” value was ~21%.
On the same count and under the same terms, the entry for “RRRQRRKKRGQIAKRRRLSSLRA [RvTAT-rSP6-S235, Fusion peptide: RvTAT at N-terminus of rSP6-S235]” is “about 29%”.
Consider “RRRQRRKKRGRKPERRRLKTTRL [RvTAT-ZIPK-T299, Fusion peptide: RvTAT at N-terminus of ZIPK-T299]”, for which, in the experiment on HT22 cells, the “reduced HT22 cell death” value is “about 33%”. In addition, the “reducing cortical neuronal death” value in experiment [1] (1000 nM peptide added 30 min before OGD, 20 h reperfusion, MTT) stood at 12%.
As for “RRRQRRKKRGSGVRRRRLSNVSL [RvTAT-PKD-S205, Fusion peptide: RvTAT cell penetrating peptide at N-terminus of PKD-S205]”, the reduced cell death with HT22 cells (100 nM peptide) is recorded as 11%; with HT22 cells (200 nM peptide), 22%; with HT22 cells (1600 nM peptide), 24%. In the experiment with HT22 cells (glutamate induced apoptosis model), this sequence gave a most effective concentration of 400 nM. For the same sequence, the “increase in memory index (Y-maze passive avoidance)” value in experiment [2] was determined as 30%. In experiment [1] (300 nM peptide added 30 min before OGD, 20 h reperfusion, MTT), this sequence yielded a reducing neuronal death of 12%. Moreover, in experiment [3] (3 days after tMCAO), the “mean holding time, treated vs untreated” value is “no significant differences”. The results for the “Holding time on rod increase” value in experiment [3] (5 days after tMCAO) and in experiment [3] (7 days after tMCAO) were 70% and 75%, respectively. Moreover, the “decrease in MDA level” value in experiment [4] worked out at 55%. For the same sequence, the “brain water content reduced” value in experiment [5] is recorded as 8.5%. Besides, in experiment [6], the “reduced the volume of total cerebral infarction” value is “approximately 60%”.

The record behind these values is US20240034752A1, “ARTIFICIAL SHORT INTERFERING PEPTIDE FOR THE PHOSPHORYLATION SUBSTRATE OF DAPK1 AND ITS PHARMACEUTICAL APPLICATIONS” (priority 2021, published 2024).
